Measured values from ChEMBL document CHEMBL1201861, “Genomics of Drug Sensitity in Cancer screening data, Wellcome Trust Sanger Institute”.

Legend:
Assay in all cases: cells
Assay type in all cases: functional, cell-based, Homo sapiens
MIA PaCa-2 = conditions: Homo sapiens, MIA PaCa-2;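 note: growth inhibition of MIA PaCa-2 cells, read out with a cell viability assay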
Description: SANGER: Inhibition of human MIA-PaCa-2 cell growth in a cell viability assay.

MC-IXC = conditions: Homo sapiens, MC-IXC;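 note: growth inhibition of MC-IXC cells, read out with a cell viability assay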
Description: SANGER: Inhibition of human MC-IXC cell growth in a cell viability assay.

NCI-H520 = conditions: Homo sapiens, NCI-H520;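 note: growth inhibition of NCI-H520 cells, measured by a cell viability assay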
Description: SANGER: Inhibition of human NCI-H520 cell growth in a cell viability assay.

NCI-H1792 = conditions: Homo sapiens, NCI-H1792;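 note: growth inhibition of human NCI-H1792 cells, read out as cell viability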
Description: SANGER: Inhibition of human NCI-H1792 cell growth in a cell viability assay.

HCC1395 = conditions: Homo sapiens, HCC1395;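 note: growth inhibition of HCC1395 cells, read out by a cell viability assay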
Description: SANGER: Inhibition of human HCC1395 cell growth in a cell viability assay.

GCT = conditions: Homo sapiens, GCT;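 note: GCT cell line proliferation inhibition, read out with a cell viability assay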
Description: SANGER: Inhibition of human GCT cell growth in a cell viability assay.

RPMI-7951 = conditions: Homo sapiens, RPMI-7951
Description: SANGER: Inhibition of human RPMI-7951 cell growth in a cell viability assay.

MFE-280 = conditions: Homo sapiens, MFE-280;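 note: growth inhibition of MFE-280 cells, determined with a cell viability readout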
Description: SANGER: Inhibition of human MFE-280 cell growth in a cell viability assay.

SCC-9 = conditions: Homo sapiens, SCC-9;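 note: Read-out is a cell viability assay, with values giving inhibition of cell growth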
Description: SANGER: Inhibition of human SCC-9 cell growth in a cell viability assay.

YKG-1 = conditions: Homo sapiens, YKG-1;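 note: cell growth inhibition, read out with a viability assay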
Description: SANGER: Inhibition of human YKG-1 cell growth in a cell viability assay.

CFPAC-1 = conditions: Homo sapiens, CFPAC-1;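 note: cell viability readout used to gauge suppression of CFPAC-1 cell proliferation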
Description: SANGER: Inhibition of human CFPAC-1 cell growth in a cell viability assay.

A673 = conditions: Homo sapiens, A673;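 note: growth inhibition of human A673 cells, read out through a cell viability assay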
Description: SANGER: Inhibition of human A673 cell growth in a cell viability assay.

ESS-1 = conditions: Homo sapiens, ESS-1;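 note: growth inhibition of human ESS-1 cells, read out by a cell viability assay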
Description: SANGER: Inhibition of human ESS-1 cell growth in a cell viability assay.

NCI-H2452 = conditions: Homo sapiens, NCI-H2452;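 note: growth inhibition of NCI-H2452 cells, read out with a cell viability assay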
Description: SANGER: Inhibition of human NCI-H2452 cell growth in a cell viability assay.

HLE = conditions: Homo sapiens, HLE;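 note: growth inhibition of human HLE cells, read out by a cell viability assay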
Description: SANGER: Inhibition of human HLE cell growth in a cell viability assay.

ME-180 = conditions: Homo sapiens, ME-180;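 note: cell viability assay measuring growth inhibition of ME-180 cells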
Description: SANGER: Inhibition of human ME-180 cell growth in a cell viability assay.

NCI-H2087 = conditions: Homo sapiens, NCI-H2087;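 note: growth inhibition determined with a cell viability readout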
Description: SANGER: Inhibition of human NCI-H2087 cell growth in a cell viability assay.

KYSE-140 = conditions: Homo sapiens, KYSE-140;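 note: cell viability assay measuring growth inhibition in human KYSE-140 cells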
Description: SANGER: Inhibition of human KYSE-140 cell growth in a cell viability assay.

A2780 = conditions: Homo sapiens, A2780;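 note: growth inhibition of A2780 cells, read out with a cell viability assay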
Description: SANGER: Inhibition of human A2780 cell growth in a cell viability assay.

ASPC1 = conditions: Homo sapiens, ASPC1;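 note: growth inhibition of AsPC-1 cells, read out with a cell viability assay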
Description: SANGER: Inhibition of human AsPC-1 cell growth in a cell viability assay.

786-0 = conditions: Homo sapiens
Description: SANGER: Inhibition of human 786-0 cell growth in a cell viability assay.

ABC-1 = conditions: Homo sapiens, ABC-1;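 note: growth inhibition of human ABC-1 cells, read out by a cell viability assay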
Description: SANGER: Inhibition of human ABC-1 cell growth in a cell viability assay.

RT-112 = conditions: Homo sapiens, RT-112
Description: SANGER: Inhibition of human RT-112 cell growth in a cell viability assay.

J82 = conditions: Homo sapiens, J82;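 note: growth inhibition of J82 cells, read out with a cell viability assay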
Description: SANGER: Inhibition of human J82 cell growth in a cell viability assay.

HPAF-II = conditions: Homo sapiens, HPAF-II;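 note: growth inhibition of HPAF-II cells, read out with a cell viability assay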
Description: SANGER: Inhibition of human HPAF-II cell growth in a cell viability assay.

NCI-H650 = conditions: Homo sapiens, NCI-H650;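 note: growth inhibition of NCI-H650 cells, read out by a viability assay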
Description: SANGER: Inhibition of human NCI-H650 cell growth in a cell viability assay.

SCC-4 = conditions: Homo sapiens, SCC-4;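 note: growth inhibition of human SCC-4 cells, read out as cell viability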
Description: SANGER: Inhibition of human SCC-4 cell growth in a cell viability assay.

OE19 = conditions: Homo sapiens, OE19;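 note: growth inhibition of OE19 cells, measured through a cell viability read-out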
Description: SANGER: Inhibition of human OE19 cell growth in a cell viability assay.

HSC-3 = conditions: Homo sapiens, HSC-3
Description: SANGER: Inhibition of human HSC-3 cell growth in a cell viability assay.

TCC-SUP = conditions: Homo sapiens, TCC-SUP;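 note: growth inhibition of TCC-SUP cells, read out with a cell viability assay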
Description: SANGER: Inhibition of human TCCSUP cell growth in a cell viability assay.

G-402 = conditions: Homo sapiens, G-402
Description: SANGER: Inhibition of human G-402 cell growth in a cell viability assay.

Huh-7 = conditions: Homo sapiens, Huh-7;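 note: HuH-7 cell growth inhibition, read out with a cell viability assay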
Description: SANGER: Inhibition of human HuH-7 cell growth in a cell viability assay.

NCI-H28 = conditions: Homo sapiens, NCI-H28;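 note: growth inhibition of human NCI-H28 cells, read out as cell viability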
Description: SANGER: Inhibition of human NCI-H28 cell growth in a cell viability assay.

NB14 = conditions: Homo sapiens, NB14;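 note: growth inhibition of NB14 cells measured with a cell viability assay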
Description: SANGER: Inhibition of human NB14 cell growth in a cell viability assay.

HCT-15 = conditions: Homo sapiens, HCT-15;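 note: cell viability readout, IC50 reflecting suppression of HCT-15 cell growth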
Description: SANGER: Inhibition of human HCT-15 cell growth in a cell viability assay.

Structure (SMILES)	IC50 (MIA PaCa-2) [µM]	IC50 (MC-IXC) [µM]	IC50 (NCI-H1792) [µM]	IC50 (HCC1395) [µM]	IC50 (RPMI-7951) [µM]	IC50 (SCC-9) [µM]	IC50 (CFPAC-1) [µM]	IC50 (A673) [µM]	IC50 (ESS-1) [µM]	IC50 (HLE) [µM]	IC50 (NCI-H2087) [µM]	IC50 (KYSE-140) [µM]	IC50 (A2780) [µM]	IC50 (ASPC1) [µM]	IC50 (786-0) [µM]	IC50 (ABC-1) [µM]	IC50 (RT-112) [µM]	IC50 (J82) [µM]	IC50 (HPAF-II) [µM]	IC50 (SCC-4) [µM]	further results
COc1cc2c(Nc3ccc(NC(=O)c4ccccc4)cc3)ncnc2cc1OCCCN1CCOCC1	3.91	> 4	> 4	> 4	> 4	> 4	> 4	> 4	> 4	> 4	> 4	> 4	> 4	> 4	> 4	1.4	2.66	> 4	> 4	> 4	IC50 (NCI-H520): > 4 µM; IC50 (GCT): 3.77 µM; IC50 (MFE-280): 3.41 µM; IC50 (YKG-1): 3.14 µM; IC50 (NCI-H2452): > 4 µM; IC50 (ME-180): > 4 µM; IC50 (NCI-H650): > 4 µM; IC50 (OE19): > 4 µM; IC50 (HSC-3): 3.37 µM; IC50 (TCC-SUP): > 4 µM; IC50 (G-402): > 4 µM; IC50 (Huh-7): > 4 µM; IC50 (NCI-H28): > 4 µM; IC50 (NB14): 1.56 µM
CC(C)c1ccccc1Cc1cc(C(=O)Nc2ccc(S(=O)(=O)c3ccccc3C(C)(C)C)cc2)c(O)c(O)c1O	0.479	0.0753	0.69	7.11	0.888	0.957	0.522	0.0538	0.141	0.121	0.575	0.186	0.218	0.973	6.97	0.316	0.535	1.13	0.228	1.3	IC50 (NCI-H520): 0.606 µM; IC50 (HCT-15): 0.202 µM; IC50 (GCT): 0.191 µM; IC50 (MFE-280): 4.59 µM; IC50 (YKG-1): 0.0298 µM; IC50 (NCI-H2452): 0.754 µM; IC50 (NCI-H650): 0.646 µM; IC50 (OE19): 5.98 µM; IC50 (HSC-3): 0.286 µM; IC50 (TCC-SUP): 0.361 µM; IC50 (G-402): 0.193 µM; IC50 (Huh-7): 0.0328 µM; IC50 (NCI-H28): 0.447 µM; IC50 (NB14): 0.0764 µM
CC(C)CCN1c2nc(Nc3cc(F)c(O)c(F)c3)ncc2N(C)C(=O)C1C (centres undefined)	4.36	0.796	2.74	> 5	3.4	> 5	> 5	> 5	> 5	> 5	> 5	> 5	> 5	> 5	> 5	> 5	> 5	> 5	> 5	3.09	IC50 (NCI-H520): > 5 µM; IC50 (HCT-15): > 5 µM; IC50 (GCT): 2.31 µM; IC50 (MFE-280): > 5 µM; IC50 (YKG-1): 1.98 µM; IC50 (NCI-H2452): > 5 µM; IC50 (ME-180): 2.78 µM; IC50 (NCI-H650): > 5 µM; IC50 (OE19): > 5 µM; IC50 (HSC-3): 0.818 µM; IC50 (TCC-SUP): > 5 µM; IC50 (G-402): > 5 µM; IC50 (Huh-7): > 5 µM; IC50 (NCI-H28): > 5 µM; IC50 (NB14): 2.11 µM
Nc1cccc2c1CN(C1CCC(=O)NC1=O)C2=O (centres undefined) [LENALIDOMIDE]	> 5	> 5	> 5	> 5	> 5	> 5	> 5	> 5	> 5	> 5	> 5	> 5	> 5	> 5	> 5	> 5	> 5	> 5	> 5	> 5	IC50 (NCI-H520): > 5 µM; IC50 (HCT-15): > 5 µM; IC50 (GCT): > 5 µM; IC50 (MFE-280): > 5 µM; IC50 (YKG-1): > 5 µM; IC50 (NCI-H2452): > 5 µM; IC50 (ME-180): > 5 µM; IC50 (NCI-H650): > 5 µM; IC50 (OE19): > 5 µM; IC50 (HSC-3): > 5 µM; IC50 (TCC-SUP): > 5 µM; IC50 (G-402): > 5 µM; IC50 (Huh-7): > 5 µM; IC50 (NCI-H28): > 5 µM; IC50 (NB14): > 5 µM
CN(C)C(=N)NC(=N)N [METFORMIN]	> 20000	7890	> 20000	> 20000	9100	10200	> 20000	19200	> 20000	9860	> 20000	> 20000	4880	5370	> 20000	> 20000	> 20000	12900	7740	> 20000	IC50 (HCT-15): 8890 µM; IC50 (ME-180): > 20000 µM; IC50 (OE19): > 20000 µM; IC50 (HSC-3): > 20000 µM; IC50 (TCC-SUP): 4010 µM; IC50 (G-402): 11300 µM; IC50 (Huh-7): 15500 µM; IC50 (NCI-H28): 12000 µM
CC1(C)CNc2cc(NC(=O)c3cccnc3NCc3ccncc3)ccc21 [MOTESANIB]	> 2	> 2	> 2	> 2	> 2	> 2	> 2	> 2	> 2	> 2	> 2	> 2	> 2	> 2	> 2	> 2	1.59	> 2	> 2	> 2	IC50 (NCI-H520): > 2 µM; IC50 (GCT): > 2 µM; IC50 (MFE-280): > 2 µM; IC50 (YKG-1): > 2 µM; IC50 (NCI-H2452): > 2 µM; IC50 (ME-180): > 2 µM; IC50 (NCI-H650): > 2 µM; IC50 (OE19): > 2 µM; IC50 (HSC-3): > 2 µM; IC50 (TCC-SUP): > 2 µM; IC50 (G-402): 1.02 µM; IC50 (Huh-7): > 2 µM; IC50 (NCI-H28): > 2 µM; IC50 (NB14): > 2 µM
Cc1cn(-c2cc(NC(=O)c3ccc(C)c(Nc4nccc(-c5cccnc5)n4)c3)cc(C(F)(F)F)c2)cn1 [NILOTINIB]	> 2	> 2	> 2	> 2	> 2	> 2	> 2	> 2	> 2	> 2	> 2	> 2	> 2	> 2	> 2	> 2	> 2	> 2	> 2	> 2	IC50 (NCI-H520): > 2 µM; IC50 (HCT-15): > 2 µM; IC50 (GCT): > 2 µM; IC50 (MFE-280): > 2 µM; IC50 (YKG-1): > 2 µM; IC50 (NCI-H2452): > 2 µM; IC50 (ME-180): > 2 µM; IC50 (NCI-H650): > 2 µM; IC50 (OE19): > 2 µM; IC50 (HSC-3): > 2 µM; IC50 (TCC-SUP): > 2 µM; IC50 (G-402): > 2 µM; IC50 (Huh-7): > 2 µM; IC50 (NCI-H28): > 2 µM; IC50 (NB14): > 2 µM
CCN(CC)CCCCNc1ncc2cc(-c3cc(OC)cc(OC)c3)c(NC(=O)NC(C)(C)C)nc2n1 [PD-173074]	> 2	> 2	> 2	> 2	> 2	> 2	> 2	> 2	> 2	> 2	> 2	> 2	> 2	> 2	> 2	> 2	0.547	> 2	> 2	> 2	IC50 (NCI-H520): > 2 µM; IC50 (GCT): > 2 µM; IC50 (MFE-280): 0.859 µM; IC50 (YKG-1): > 2 µM; IC50 (NCI-H2452): > 2 µM; IC50 (ME-180): > 2 µM; IC50 (NCI-H650): > 2 µM; IC50 (OE19): > 2 µM; IC50 (HSC-3): > 2 µM; IC50 (TCC-SUP): > 2 µM; IC50 (G-402): > 2 µM; IC50 (Huh-7): 1.24 µM; IC50 (NCI-H28): > 2 µM; IC50 (NB14): > 2 µM
